According to US20070078262A1, “Thiomorpholino steroid compounds, the use thereof for the preparation of meiosis-regulating medicaments and method for the preparation thereof” (SCHERING AKTIENGESELLSCHAFT, priority 2003, published 2007):

Test system: in vitro fertilized ova (2-cell embryos)
Test: Retransfer study / fertility trial (in vitro fertilized 2-cell embryos transferred into foster mothers)
Format: in vivo, mice
Settings: for No. of Implantation Spots: Odds / No. of Viable Fetuses: Odds: successes divided by failures; for No. of Implantation Spots: Failures: transferred ova minus implantation spots; for No. of Viable Fetuses: Failures: transferred ova minus viable fetuses; for Odds Ratio for comparison to FF-MAS, No. of Implantation Spots / Odds Ratio for comparison to FF-MAS, No. of Viable Fetuses: versus FF-MAS 10 μM
Protocol: In vitro fertilization was performed as described above for the IVF experiment.
One day before the retransfer female recipient mice (foster mothers) in pro-estrus cycle state were mated with vasectomized males in order to trigger pseudogestation. One day later a vaginal check was performed. Animals with a positive, sperm-free vaginal plug (successful mating) entered the study. This day was designated day 0 of gestation (=day 0 after the sterile copulation, day 0 p.c.). […] 2-cell embryos were transferred into the right tube of the foster mothers on day 0 after the sterile copulation under anesthesia. The contra-lateral tube remained unused (check for pseudogestation). The foster mothers were sacrified on day 19 of gestation. The fetuses were removed and examined. The ovaries and uteri were removed immediately to record the number of implantation sites, viable and dead fetuses and resorptions. Apparently non-pregnant uteri were placed in a 10% aqueous solution of ammonium sulfide for about 10 min to stain possible implantation sites in the endometrium. The viable fetuses were individually weighed and their sex determined by inspection of their gonads.
In a fertility trial 269 mice were randomized into 6 groups and implanted with 7-10 in vitro fertilized ova. The in vitro fertilization took place in the presence of vehicle (group 1) or of a substance (groups 2 to 6).
The fertility raising effect of the substances in comparison to the vehicle control was of main interest. Moreover, an improvement compared to the substance FF-MAS was also investigated.
Variables of primary interest are the number of implantation spots and the number of viable fetuses.
The data for implantation spots as well as for viable fetuses have to be considered to have binary character, i.e. it can be expressed in rates or in a number of successes and failures with respect to the number of transferred ova. Therefore, methods as outlined by D. Collett: “Modelling Binary Data”, 2nd edition, Chapman & Hall/CRC, Boca Raton, constitute appropriate approaches to the data analysis.
The odds ratio of one group as compared to the other is defined as: odds ratio (group 1, group 2)=or1,2=odds (group 1)/odds (group 2)
where the odds of a group can be estimated by the number of successes divided by the number of failures in that group.
To reach statements about the significance of any findings, 95% confidence-intervals for the odds ratios are computed as: [ exp(log(or1,2)[…]1.96·se(log(or1,2))); exp(log(or1,2)+1.96·se(log(or1,2)))]
wherein se(log(or1,2)) is the standard error of the log odds ratio (see D. Collett (2003) for the corresponding formula).
As a basis for the computation of odds ratios, the number of successes (i.e., the number of implantation spots of number of viable fetuses) and failures (i.e., the number of transferred ova minus the number of implantation spots or number of viable fetuses) are computed for all groups.

C[C@H](CN1CCSCC1)[C@H]1CC=C2C3=C(CC[C@@]21C)[C@@]1(C)CC[C@H](O)C(C)(C)[C@@H]1CC3 [Compound IA, (20S)-20-[(thiomorpholin-4-yl)methyl]-4,4-dimethyl-5α-pregna-8,14-dien-3β-ol]
No. of Implantation Spots: Success (1 μM): 120
No. of Viable Fetuses: Success (1 μM): 51
Odds Ratio for comparison to vehicle control, No. of Implantation Spots (1 μM): 1.51
Odds Ratio for comparison to vehicle control, No. of Viable Fetuses (1 μM): 1.70
increase of the odds of a successful implantation versus vehicle control (1 μM): 51%
No. of Implantation Spots: Odds (1 μM): 0.38
No. of Viable Fetuses: Odds (1 μM): 0.13
No. of Implantation Spots: Failures (1 μM): 317
No. of Viable Fetuses: Failures (1 μM): 386
Odds Ratio for comparison to FF-MAS, No. of Implantation Spots (1 μM): 1.27
Odds Ratio for comparison to FF-MAS, No. of Viable Fetuses (1 μM): 1.15
No. of Implantation Spots: Success (10 μM): 123
No. of Viable Fetuses: Success (10 μM): 40
Odds Ratio for comparison to vehicle control, No. of Implantation Spots (10 μM): 1.55
Odds Ratio for comparison to vehicle control, No. of Viable Fetuses (10 μM): 1.29
better chance (odds) of a successful implantation versus vehicle control (10 μM): 55%
No. of Implantation Spots: Odds (10 μM): 0.39
No. of Viable Fetuses: Odds (10 μM): 0.10
No. of Implantation Spots: Failures (10 μM): 317
No. of Viable Fetuses: Failures (10 μM): 400
Odds Ratio for comparison to FF-MAS, No. of Implantation Spots (10 μM): 1.30
Odds Ratio for comparison to FF-MAS, No. of Viable Fetuses (10 μM): 0.87
shows significant improvement of odds versus vehicle control, number of implantation spots (95% confidence interval of odds ratio, all doses tested): significant improvement of odds
implantation rate per transferred 2-cell embryos (FIG. 4) (FF-MAS 10 μM, compound IA 1 μM and 10 μM): higher numbers
increase of the odds for a success in terms of viable fetuses versus vehicle control (lower doses (1 μM)): 70%
